# Assay results as given in publication PMC2951761 (Biochemistry, 2010).
# Where two headings read alike, the source gives them in different places.
# Tests used:
# EF AC activity [1] = target: T1, EF AC activity (Bacillus anthracis, UniProt P40136); assay type: biochemical; conditions: read-out: Ki EF AC activity
# EF CC activity = EF CC activity (Bacillus anthracis, UniProt P40136); assay type: biochemical; conditions: read-out: Ki EF CC activity
# CyaA CC activity = CyaA CC activity (Bordetella pertussis, UniProt P0DKX7); assay type: biochemical; conditions: read-out: Ki CyaA CC activity
# CyaA AC activity = CyaA AC activity (Bordetella pertussis, UniProt P0DKX7); conditions: read-out: Ki CyaA AC activity; cited from earlier work
# EF AC activity [2] = target: T1, EF AC activity; conditions: read-out: Ki EF AC activity; cited from earlier work
# Chain of CyaA CC activity (P0DKX7 whole entry, looked up): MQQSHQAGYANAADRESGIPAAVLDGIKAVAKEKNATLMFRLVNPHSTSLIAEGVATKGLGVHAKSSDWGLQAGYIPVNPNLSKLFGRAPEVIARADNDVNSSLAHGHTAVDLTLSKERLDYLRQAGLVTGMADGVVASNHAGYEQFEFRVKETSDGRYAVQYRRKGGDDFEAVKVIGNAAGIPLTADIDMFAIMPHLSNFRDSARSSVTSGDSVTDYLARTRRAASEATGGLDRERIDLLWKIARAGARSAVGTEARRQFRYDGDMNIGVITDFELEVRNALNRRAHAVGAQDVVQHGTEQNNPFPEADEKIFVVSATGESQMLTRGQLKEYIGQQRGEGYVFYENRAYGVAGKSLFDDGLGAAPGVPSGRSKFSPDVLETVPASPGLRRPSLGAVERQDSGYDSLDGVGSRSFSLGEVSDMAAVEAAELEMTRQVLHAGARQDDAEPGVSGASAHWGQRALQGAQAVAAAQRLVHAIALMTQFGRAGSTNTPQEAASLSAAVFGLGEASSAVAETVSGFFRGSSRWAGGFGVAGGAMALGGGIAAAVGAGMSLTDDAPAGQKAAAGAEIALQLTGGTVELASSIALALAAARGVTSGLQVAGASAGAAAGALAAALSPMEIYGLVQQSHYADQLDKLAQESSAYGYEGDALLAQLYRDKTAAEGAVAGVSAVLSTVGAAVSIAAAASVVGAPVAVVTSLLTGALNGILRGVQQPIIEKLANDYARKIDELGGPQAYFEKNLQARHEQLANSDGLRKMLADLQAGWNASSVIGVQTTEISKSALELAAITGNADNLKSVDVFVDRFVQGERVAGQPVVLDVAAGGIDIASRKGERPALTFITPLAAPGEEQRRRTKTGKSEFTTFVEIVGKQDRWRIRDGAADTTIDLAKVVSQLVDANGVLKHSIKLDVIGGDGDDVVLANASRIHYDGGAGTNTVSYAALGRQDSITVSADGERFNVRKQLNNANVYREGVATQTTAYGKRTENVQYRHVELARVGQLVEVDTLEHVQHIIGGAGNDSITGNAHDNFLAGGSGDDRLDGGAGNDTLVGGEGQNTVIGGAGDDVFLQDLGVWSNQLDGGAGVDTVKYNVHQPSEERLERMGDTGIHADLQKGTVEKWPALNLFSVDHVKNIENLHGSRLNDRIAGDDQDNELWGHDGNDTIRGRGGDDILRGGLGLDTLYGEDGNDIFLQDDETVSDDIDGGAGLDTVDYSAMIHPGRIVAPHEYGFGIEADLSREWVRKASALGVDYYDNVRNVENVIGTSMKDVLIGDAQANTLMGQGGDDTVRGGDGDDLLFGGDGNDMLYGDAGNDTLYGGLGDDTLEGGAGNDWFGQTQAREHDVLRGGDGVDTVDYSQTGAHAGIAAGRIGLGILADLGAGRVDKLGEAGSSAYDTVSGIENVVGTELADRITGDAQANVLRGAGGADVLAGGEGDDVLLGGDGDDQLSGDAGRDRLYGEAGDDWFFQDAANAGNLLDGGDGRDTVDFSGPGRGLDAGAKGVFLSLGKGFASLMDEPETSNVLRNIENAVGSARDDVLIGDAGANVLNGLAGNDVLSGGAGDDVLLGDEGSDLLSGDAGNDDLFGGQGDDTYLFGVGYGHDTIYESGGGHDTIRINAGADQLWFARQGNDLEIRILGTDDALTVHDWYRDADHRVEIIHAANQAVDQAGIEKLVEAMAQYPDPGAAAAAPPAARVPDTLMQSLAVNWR
# Chain of CyaA AC activity (P0DKX7 whole entry, looked up): as above
# Chain of EF CC activity (P40136 whole entry, looked up): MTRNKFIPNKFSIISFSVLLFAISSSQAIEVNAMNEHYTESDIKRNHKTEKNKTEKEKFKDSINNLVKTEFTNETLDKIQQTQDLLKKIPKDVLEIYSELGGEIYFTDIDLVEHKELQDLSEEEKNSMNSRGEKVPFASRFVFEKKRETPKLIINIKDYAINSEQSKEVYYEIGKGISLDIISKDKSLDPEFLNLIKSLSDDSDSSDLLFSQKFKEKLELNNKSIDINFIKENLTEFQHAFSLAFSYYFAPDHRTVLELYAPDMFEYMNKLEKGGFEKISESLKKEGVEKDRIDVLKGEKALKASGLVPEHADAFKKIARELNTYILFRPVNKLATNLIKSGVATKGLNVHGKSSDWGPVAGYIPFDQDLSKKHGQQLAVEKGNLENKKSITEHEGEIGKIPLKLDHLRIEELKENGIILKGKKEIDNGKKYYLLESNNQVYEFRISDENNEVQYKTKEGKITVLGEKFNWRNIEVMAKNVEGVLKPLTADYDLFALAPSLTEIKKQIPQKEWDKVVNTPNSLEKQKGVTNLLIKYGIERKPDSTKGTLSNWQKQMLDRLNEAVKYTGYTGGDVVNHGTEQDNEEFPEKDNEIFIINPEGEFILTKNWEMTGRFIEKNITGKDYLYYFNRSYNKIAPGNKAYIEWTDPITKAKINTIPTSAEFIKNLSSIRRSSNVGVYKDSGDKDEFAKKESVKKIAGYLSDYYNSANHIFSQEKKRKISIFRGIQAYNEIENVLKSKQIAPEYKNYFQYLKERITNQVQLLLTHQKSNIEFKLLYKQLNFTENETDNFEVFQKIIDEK
# T1 sequence (P40136 whole entry, looked up): as above
molecule,measurement,setting,value
"Nc1ncnc2c1ncn2CCOCP(=O)(O)OP(=O)(O)OP(=O)(O)O [PMEApp, [9-[2-(Phosphonomethoxy)ethyl]adenine diphosphate]]",Ki,EF AC activity [1],2 ± 0.5 nM
same,Ki,EF CC activity,4.5 ± 0.4 nM
MANT-ATP,Ki,CyaA CC activity,4.4 ± 0.1 µM
same,Ki,CyaA AC activity,4.3 ± 0.4 µM
MANT-GTP,Ki,EF CC activity,2800 ± 400 nM
same,Ki,CyaA CC activity,6.1 ± 2 µM
same,Ki,EF AC activity [2],2500 ± 100 nM
same,Ki,CyaA AC activity,5.9 ± 1 µM
